In PubChem BioAssay AID2060611 (Molecular Pharmacology Branch, DTP, NCI, 2025):

Tested on: 628569-122-R-J1-PDC complex spheroid viability
Test: Anticancer human tumor 628569-122-R-J1-PDC patient-derived head and neck squamous carcinoma cell line growth inhibition [CLK]
Conditions: for IC50: curve of first compound; for viability, T/C: stronger effect = lower value; active = viability on the fitted dose curve at most 10% of control; inactive = the rest
Outline: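 Patient-derived tumor cells grown as complex spheroids with HUVEC endothelial cells and mesenchymal stem cells, treated with drug combinations. Concentrations descend in half-log steps from near clinical Cmax, or from 10 microM if Cmax unknown.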
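Also: spheroids exposed to agents for seven days before readout.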
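For viability, T/C in this document: 100% = DMSO vehicle control viability.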

CC(C)CC(NC(=O)C(Cc1ccccc1)NC(=O)c1cnccn1)B(O)O (centres undefined) + CN1CCN(c2cc(C(=O)Nc3cc4cc(-c5cnn(C)c5)ccc4cn3)ccn2)CC1
1.68 nM: IC50 (second compound 0.1 µM)
4.41 nM: IC50 (second compound 0.0316 µM)
active: viability, T/C (second compound 0.0316 µM, first compound 0.00949 µM) 9.85% | viability, T/C (second compound 0.0316 µM, first compound 0.03 µM) 8.4% | viability, T/C (second compound 0.0316 µM, first compound 0.0949 µM) 6.4% | viability, T/C (second compound 0.0316 µM, first compound 0.3 µM) 4.25% | viability, T/C (second compound 0.1 µM, first compound 0.00949 µM) 7.61% | viability, T/C (second compound 0.1 µM, first compound 0.03 µM) 6.34% | viability, T/C (second compound 0.1 µM, first compound 0.0949 µM) 6.04% | viability, T/C (second compound 0.1 µM, first compound 0.3 µM) 5.02% | viability, T/C (second compound 0.316 µM, first compound 0.003 µM) 4.9% | viability, T/C (second compound 0.316 µM, first compound 0.00949 µM) 10.6% | viability, T/C (second compound 0.316 µM, first compound 0.03 µM) 4.39% | viability, T/C (second compound 0.316 µM, first compound 0.0949 µM) 4.89% | viability, T/C (second compound 0.316 µM, first compound 0.3 µM) 2.72% | viability, T/C (second compound 1 µM, first compound 0.000949 µM) 9.15% | viability, T/C (second compound 1 µM, first compound 0.003 µM) 8.04% | viability, T/C (second compound 1 µM, first compound 0.00949 µM) 4.76% | viability, T/C (second compound 1 µM, first compound 0.03 µM) 6.26% | viability, T/C (second compound 1 µM, first compound 0.0949 µM) 7.32% | viability, T/C (second compound 1 µM, first compound 0.3 µM) 5.71% | viability, T/C (second compound 3.16 µM, first compound 0.000949 µM) 6.67% | viability, T/C (second compound 3.16 µM, first compound 0.003 µM) 6.69% | viability, T/C (second compound 3.16 µM, first compound 0.00949 µM) 5.84% | viability, T/C (second compound 3.16 µM, first compound 0.03 µM) 5.55% | viability, T/C (second compound 3.16 µM, first compound 0.0949 µM) 5.83% | viability, T/C (second compound 3.16 µM, first compound 0.3 µM) 4.09% | viability, T/C (second compound 10 µM, first compound 0.000949 µM) 8.8% | viability, T/C (second compound 10 µM, first compound 0.003 µM) 1.66% | viability, T/C (second compound 10 µM, first compound 0.00949 µM) 2.36% | viability, T/C (second compound 10 µM, first compound 0.03 µM) 1.91% | viability, T/C (second compound 10 µM, first compound 0.0949 µM) 4.23% | viability, T/C (second compound 10 µM, first compound 0.3 µM) 0.93%
< 0.949 nM: IC50 (second compound 0.316 µM) | IC50 (second compound 1 µM) | IC50 (second compound 3.16 µM) | IC50 (second compound 10 µM)
inactive: viability, T/C (second compound 0.0316 µM, first compound 0.000949 µM) 83.3% | viability, T/C (second compound 0.0316 µM, first compound 0.003 µM) 70.2% | viability, T/C (second compound 0.1 µM, first compound 0.000949 µM) 62.6% | viability, T/C (second compound 0.1 µM, first compound 0.003 µM) 37.3% | viability, T/C (second compound 0.316 µM, first compound 0.000949 µM) 37.8%

CC1(C)CCC(CN2CCN(c3ccc(C(=O)NS(=O)(=O)c4ccc(NCC5CCOCC5)c([N+](=O)[O-])c4)c(Oc4cnc5[nH]ccc5c4)c3)CC2)=C(c2ccc(Cl)cc2)C1 + CN1CCN(c2cc(C(=O)Nc3cc4cc(-c5cnn(C)c5)ccc4cn3)ccn2)CC1
< 31.6 nM: IC50 (second compound 0.316 µM) | IC50 (second compound 1 µM) | IC50 (second compound 3.16 µM) | IC50 (second compound 10 µM)
active: viability, T/C (second compound 1 µM, first compound 0.316 µM) 5.93% | viability, T/C (second compound 1 µM, first compound 1 µM) 9.88% | viability, T/C (second compound 1 µM, first compound 3.16 µM) 10.1% | viability, T/C (second compound 1 µM, first compound 10 µM) 3.58% | viability, T/C (second compound 3.16 µM, first compound 0.0316 µM) 8.81% | viability, T/C (second compound 3.16 µM, first compound 0.1 µM) 8.56% | viability, T/C (second compound 3.16 µM, first compound 0.316 µM) 6.4% | viability, T/C (second compound 3.16 µM, first compound 1 µM) 7.84% | viability, T/C (second compound 3.16 µM, first compound 3.16 µM) 8.73% | viability, T/C (second compound 3.16 µM, first compound 10 µM) 3.29% | viability, T/C (second compound 10 µM, first compound 0.0316 µM) 7.98% | viability, T/C (second compound 10 µM, first compound 0.1 µM) 2.99% | viability, T/C (second compound 10 µM, first compound 0.316 µM) 4.03% | viability, T/C (second compound 10 µM, first compound 1 µM) 8.3% | viability, T/C (second compound 10 µM, first compound 3.16 µM) 3.6% | viability, T/C (second compound 10 µM, first compound 10 µM) 0.85%
> 10000 nM: IC50 (second compound 0.0316 µM) | IC50 (second compound 0.1 µM)
inactive: viability, T/C (second compound 0.0316 µM, first compound 0.0316 µM) 94% | viability, T/C (second compound 0.0316 µM, first compound 0.1 µM) 105% | viability, T/C (second compound 0.0316 µM, first compound 0.316 µM) 103% | viability, T/C (second compound 0.0316 µM, first compound 1 µM) 96% | viability, T/C (second compound 0.0316 µM, first compound 3.16 µM) 97% | viability, T/C (second compound 0.0316 µM, first compound 10 µM) 85.6% | viability, T/C (second compound 0.1 µM, first compound 0.0316 µM) 70.8% | viability, T/C (second compound 0.1 µM, first compound 0.1 µM) 63.6% | viability, T/C (second compound 0.1 µM, first compound 0.316 µM) 78.5% | viability, T/C (second compound 0.1 µM, first compound 1 µM) 67.7% | viability, T/C (second compound 0.1 µM, first compound 3.16 µM) 71.1% | viability, T/C (second compound 0.1 µM, first compound 10 µM) 69.5% | viability, T/C (second compound 0.316 µM, first compound 0.0316 µM) 36.1% | viability, T/C (second compound 0.316 µM, first compound 0.1 µM) 29.7% | viability, T/C (second compound 0.316 µM, first compound 0.316 µM) 41.3% | viability, T/C (second compound 0.316 µM, first compound 1 µM) 36% | viability, T/C (second compound 0.316 µM, first compound 3.16 µM) 28.4% | viability, T/C (second compound 0.316 µM, first compound 10 µM) 22.4% | viability, T/C (second compound 1 µM, first compound 0.0316 µM) 10.8% | viability, T/C (second compound 1 µM, first compound 0.1 µM) 13.3%
